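Protocol summary: plate cells (96-well), add compound at 5 concentrations, incubate 48 h, interpolate endpoints linearly. Abbreviation: GI50, concentration required for 50% inhibition of growth.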 The source made the active and inactive calls. No stated cut-off is given here; in the data, active = GI50 up to about 1.1 µM and inactive = higher.
What was measured:
Assay in all cases: NCI-60 cell line screen, 48 h
[1] = system: OVCAR-3
[2] = system: MOLT-4
[3] = system: SK-MEL-28
[4] = system: HCT-15
[5] = system: SN12C
[6] = system: SR
[7] = system: M14
[8] = system: KM12
[9] = system: RXF 393
[10] = system: RPMI-8226
[11] = system: NCI-H23
[12] = system: SNB-19
[13] = system: HL-60
[14] = system: NCI-H460
[15] = system: HCT-116
[16] = system: SF-539
[17] = system: CCRF-CEM
[18] = system: EKVX
[19] = system: UACC-257
[20] = system: PC-3

| Compound | GI50 [1] | GI50 [2] | GI50 [3] | GI50 [4] [µM] | GI50 [5] | GI50 [6] | GI50 [7] | GI50 [8] | GI50 [9] | GI50 [10] | GI50 [11] | GI50 [12] | GI50 [13] | GI50 [14] | GI50 [15] | GI50 [16] | GI50 [17] | GI50 [18] | GI50 [19] | GI50 [20] |
| --- | --- | --- | --- | --- | --- | --- | --- | --- | --- | --- | --- | --- | --- | --- | --- | --- | --- | --- | --- | --- |
| COc1ccc(-c2nc3c(nc2-c2ccc(OC)cc2)N(C)S(=O)(=O)N=C3N)cc1 | 14 µM (inactive) | 11.9 µM (inactive) | 32.1 µM (inactive) | 32.4 | 41 µM (inactive) | 9.89 µM (inactive) | 34.4 µM (inactive) | 22.8 µM (inactive) | 10.9 µM (inactive) | 10.6 µM (inactive) | 28.7 µM (inactive) | 28.1 µM (inactive) | 15.9 µM (inactive) | 22.8 µM (inactive) | 15 µM (inactive) | 18.3 µM (inactive) | 23.1 µM (inactive) | – | – | – |
| CCOc1ccc2c(c1)[n+]([O-])c(C(N)=O)c(N)[n+]2[O-] | > 100 µM (inactive) | > 100 µM (inactive) | > 100 µM (inactive) | – | > 100 µM (inactive) | > 100 µM (inactive) | > 100 µM (inactive) | > 100 µM (inactive) | > 100 µM (inactive) | – | > 100 µM (inactive) | > 100 µM (inactive) | > 100 µM (inactive) | > 100 µM (inactive) | > 100 µM (inactive) | > 100 µM (inactive) | 94 µM (inactive) | > 100 µM (inactive) | > 100 µM (inactive) | – |
| COc1c(OC2OC(CO)C(O)C(O)C2O)cc2c(c1OC)-c1ccc(OC)c(=O)cc1[C@@H](NC(C)=O)CC2 (stereo partly specified) | 39.5 µM (inactive) | > 100 µM (inactive) | 59.4 µM (inactive) | > 100 | > 91 µM (inactive) | > 100 µM (inactive) | 76.4 µM (inactive) | 92.7 µM (inactive) | 57.4 µM (inactive) | > 82.2 µM (inactive) | > 100 µM (inactive) | > 100 µM (inactive) | > 70.8 µM (inactive) | > 100 µM (inactive) | > 100 µM (inactive) | 64.9 µM (inactive) | 65.2 µM (inactive) | > 100 µM (inactive) | > 84.5 µM (inactive) | – |
| O=[N+]([O-])c1cccc(S(=O)(=O)N/N=C/c2cc(I)cc([N+](=O)[O-])c2O)c1 | 21.4 µM (inactive) | 31.5 µM (inactive) | 27.7 µM (inactive) | 24.5 | 24.2 µM (inactive) | 26.9 µM (inactive) | 27.2 µM (inactive) | 32.4 µM (inactive) | 26.4 µM (inactive) | 37 µM (inactive) | 22 µM (inactive) | 23.9 µM (inactive) | 21.3 µM (inactive) | 34 µM (inactive) | 27.9 µM (inactive) | 23.8 µM (inactive) | 20.1 µM (inactive) | 29 µM (inactive) | 25.2 µM (inactive) | – |
| COC(=O)CCC(=O)CC(=O)C(=O)Nc1c(Cl)cc([N+](=O)[O-])cc1Cl | > 100 µM (inactive) | > 100 µM (inactive) | > 100 µM (inactive) | 55.6 | > 100 µM (inactive) | 27.2 µM (inactive) | > 100 µM (inactive) | > 100 µM (inactive) | > 100 µM (inactive) | 33.4 µM (inactive) | > 100 µM (inactive) | > 100 µM (inactive) | > 100 µM (inactive) | > 100 µM (inactive) | 42.3 µM (inactive) | > 100 µM (inactive) | 57.3 µM (inactive) | 51.8 µM (inactive) | > 100 µM (inactive) | – |
| COC(=O)C1=C(CCCCO[Si](C)(C)C(C)(C)C)NC(=O)N2[C@@H](CCOCc3ccccc3)CC[C@H]12 | 13.4 µM (inactive) | 18.4 µM (inactive) | 30.5 µM (inactive) | 17.8 | 16.7 µM (inactive) | – | 25.8 µM (inactive) | 18.3 µM (inactive) | – | 23.4 µM (inactive) | 7.98 µM (inactive) | 23.6 µM (inactive) | – | 25.9 µM (inactive) | 10.9 µM (inactive) | – | 17.9 µM (inactive) | 15.8 µM (inactive) | 21.1 µM (inactive) | 21.1 µM (inactive) |
| Cc1ccccc1C(C#N)/C(=N/NC(=O)c1cc2ccccc2cc1O)C(=O)Nc1cccc(Cl)c1 (stereo unspecified) | 5.42 µM (inactive) | 10.9 µM (inactive) | 25.1 µM (inactive) | 22.4 | 35.6 µM (inactive) | 12.6 µM (inactive) | 18.6 µM (inactive) | 33.4 µM (inactive) | – | 21.3 µM (inactive) | 12.4 µM (inactive) | 37.9 µM (inactive) | 3.72 µM (inactive) | 28.7 µM (inactive) | 14.5 µM (inactive) | 26.4 µM (inactive) | 4.36 µM (inactive) | 28.8 µM (inactive) | 20.7 µM (inactive) | – |
| C[n+]1c2ccccc2c(CNCC(=O)O)c2ccccc21 | 1.87 µM (inactive) | 0.223 µM (active) | – | 0.805 | 0.562 µM (active) | 0.238 µM (active) | 3.97 µM (inactive) | 0.452 µM (active) | 2.38 µM (inactive) | 0.29 µM (active) | 6.95 µM (inactive) | 10.2 µM (inactive) | 0.187 µM (active) | 3.76 µM (inactive) | 0.39 µM (active) | 2.12 µM (inactive) | – | 2.56 µM (inactive) | 10.9 µM (inactive) | – |
| C[Si](C)(c1ccccc1)C1CC(=O)CC(=O)C1 | > 100 µM (inactive) | > 100 µM (inactive) | > 100 µM (inactive) | > 100 | > 100 µM (inactive) | > 100 µM (inactive) | > 100 µM (inactive) | > 100 µM (inactive) | 37.3 µM (inactive) | > 100 µM (inactive) | > 100 µM (inactive) | > 100 µM (inactive) | 21.3 µM (inactive) | > 100 µM (inactive) | > 100 µM (inactive) | 19.3 µM (inactive) | 38.4 µM (inactive) | > 100 µM (inactive) | > 100 µM (inactive) | – |
| Cc1ccc(S(=O)(=O)NC2(C=O)CCC(C(C)(C)C)CC2)cc1 (stereo unspecified) | 24.5 µM (inactive) | 16.5 µM (inactive) | – | 32.6 | 26.1 µM (inactive) | 15.2 µM (inactive) | 71 µM (inactive) | 27 µM (inactive) | 27.3 µM (inactive) | 19.1 µM (inactive) | 31.2 µM (inactive) | 68.7 µM (inactive) | 20.1 µM (inactive) | 32.3 µM (inactive) | 23.8 µM (inactive) | 44.6 µM (inactive) | – | 38.1 µM (inactive) | 34.9 µM (inactive) | – |
| Clc1nc(Cl)c(-c2ccccc2)c(Cl)n1 | 3.57 µM (inactive) | 2.96 µM (inactive) | 5.96 µM (inactive) | 2.42 | 3.14 µM (inactive) | 2.48 µM (inactive) | 1.62 µM (inactive) | 4.68 µM (inactive) | 2.18 µM (inactive) | 2.69 µM (inactive) | 4.51 µM (inactive) | 14.5 µM (inactive) | 2.15 µM (inactive) | 13.4 µM (inactive) | 1.84 µM (inactive) | 5.42 µM (inactive) | 2.27 µM (inactive) | 1.8 µM (inactive) | 2.82 µM (inactive) | – |
| COC(=O)C(C(=O)C(=O)Nc1ccc(C(F)(F)F)cc1[N+](=O)[O-])c1csc(-n2nc(-c3ccccc3)cc2-c2ccccc2)n1 (stereo unspecified) | > 100 µM (inactive) | > 100 µM (inactive) | – | > 100 | > 100 µM (inactive) | > 100 µM (inactive) | > 100 µM (inactive) | > 100 µM (inactive) | > 100 µM (inactive) | > 100 µM (inactive) | > 100 µM (inactive) | > 100 µM (inactive) | > 100 µM (inactive) | > 100 µM (inactive) | > 100 µM (inactive) | > 100 µM (inactive) | > 100 µM (inactive) | – | > 100 µM (inactive) | – |
| Cc1cc2c(C(C)C)c(O)c(O)c(/C=N\CCO)c2c(O)c1-c1c(C)cc2c(C(C)C)c(O)c(O)c(/C=N/CCO)c2c1O | 2.02 µM (inactive) | 0.527 µM (active) | 1.67 µM (inactive) | 1.51 | 2.84 µM (inactive) | 1.1 µM (active) | 1.83 µM (inactive) | 0.74 µM (active) | 3.56 µM (inactive) | 1.19 µM (inactive) | 1.76 µM (inactive) | 2.05 µM (inactive) | 2.43 µM (inactive) | 1.12 µM (active) | 1.67 µM (inactive) | 2.54 µM (inactive) | 0.653 µM (active) | 2.28 µM (inactive) | 2.32 µM (inactive) | – |
| O=C1C(N2C(=O)c3ccccc3C2=O)CN1C(COCc1ccccc1)c1ccc(OCc2ccccc2)cc1 (stereo unspecified) | > 100 µM (inactive) | > 100 µM (inactive) | > 100 µM (inactive) | > 100 | > 100 µM (inactive) | > 100 µM (inactive) | > 100 µM (inactive) | > 100 µM (inactive) | > 100 µM (inactive) | > 100 µM (inactive) | > 100 µM (inactive) | > 100 µM (inactive) | > 100 µM (inactive) | > 100 µM (inactive) | > 100 µM (inactive) | > 100 µM (inactive) | > 100 µM (inactive) | > 100 µM (inactive) | > 100 µM (inactive) | – |
| CCOc1ccc(NC(=O)CC2C(=O)Nc3ccccc3[S+]2[O-])cc1 (stereo unspecified) | > 59.7 µM (inactive) | > 100 µM (inactive) | > 100 µM (inactive) | > 100 | > 71 µM (inactive) | 29.5 µM (inactive) | > 100 µM (inactive) | > 100 µM (inactive) | 37.8 µM (inactive) | > 100 µM (inactive) | > 76.6 µM (inactive) | 59.6 µM (inactive) | > 100 µM (inactive) | > 80.4 µM (inactive) | > 85.3 µM (inactive) | > 67.8 µM (inactive) | > 100 µM (inactive) | > 46.5 µM (inactive) | > 100 µM (inactive) | – |

Reference: ChEMBL document CHEMBL1201862, “PubChem BioAssay data set” (2004)
